Test results taken from ChEMBL document CHEMBL5465560, “Selectivity Literature for EUbOPEN Chemogenomic Library” (2024).

Tests used:
[1] = target: Serine/threonine-protein kinase 26 (Homo sapiens, UniProt Q9P289); experiment: Selectivity interaction (Kinase panel (KiNativ target engagement assay in Jurkat cells)) EUB0001635a STK26; type: cell-based; conditions: Selectivity number of off-targets 0.0, Selectivity number of targets 233.0, Source Knowledge https://www.sciencedirect.com/science/article/pii/S2451945619300674?via%3Dihub, at 1 µM
[2] = target: T1, Myosin-IIIb (Homo sapiens) (UniProt Q8WXR4); conditions: at 10 µM
T1 sequence (whole entry): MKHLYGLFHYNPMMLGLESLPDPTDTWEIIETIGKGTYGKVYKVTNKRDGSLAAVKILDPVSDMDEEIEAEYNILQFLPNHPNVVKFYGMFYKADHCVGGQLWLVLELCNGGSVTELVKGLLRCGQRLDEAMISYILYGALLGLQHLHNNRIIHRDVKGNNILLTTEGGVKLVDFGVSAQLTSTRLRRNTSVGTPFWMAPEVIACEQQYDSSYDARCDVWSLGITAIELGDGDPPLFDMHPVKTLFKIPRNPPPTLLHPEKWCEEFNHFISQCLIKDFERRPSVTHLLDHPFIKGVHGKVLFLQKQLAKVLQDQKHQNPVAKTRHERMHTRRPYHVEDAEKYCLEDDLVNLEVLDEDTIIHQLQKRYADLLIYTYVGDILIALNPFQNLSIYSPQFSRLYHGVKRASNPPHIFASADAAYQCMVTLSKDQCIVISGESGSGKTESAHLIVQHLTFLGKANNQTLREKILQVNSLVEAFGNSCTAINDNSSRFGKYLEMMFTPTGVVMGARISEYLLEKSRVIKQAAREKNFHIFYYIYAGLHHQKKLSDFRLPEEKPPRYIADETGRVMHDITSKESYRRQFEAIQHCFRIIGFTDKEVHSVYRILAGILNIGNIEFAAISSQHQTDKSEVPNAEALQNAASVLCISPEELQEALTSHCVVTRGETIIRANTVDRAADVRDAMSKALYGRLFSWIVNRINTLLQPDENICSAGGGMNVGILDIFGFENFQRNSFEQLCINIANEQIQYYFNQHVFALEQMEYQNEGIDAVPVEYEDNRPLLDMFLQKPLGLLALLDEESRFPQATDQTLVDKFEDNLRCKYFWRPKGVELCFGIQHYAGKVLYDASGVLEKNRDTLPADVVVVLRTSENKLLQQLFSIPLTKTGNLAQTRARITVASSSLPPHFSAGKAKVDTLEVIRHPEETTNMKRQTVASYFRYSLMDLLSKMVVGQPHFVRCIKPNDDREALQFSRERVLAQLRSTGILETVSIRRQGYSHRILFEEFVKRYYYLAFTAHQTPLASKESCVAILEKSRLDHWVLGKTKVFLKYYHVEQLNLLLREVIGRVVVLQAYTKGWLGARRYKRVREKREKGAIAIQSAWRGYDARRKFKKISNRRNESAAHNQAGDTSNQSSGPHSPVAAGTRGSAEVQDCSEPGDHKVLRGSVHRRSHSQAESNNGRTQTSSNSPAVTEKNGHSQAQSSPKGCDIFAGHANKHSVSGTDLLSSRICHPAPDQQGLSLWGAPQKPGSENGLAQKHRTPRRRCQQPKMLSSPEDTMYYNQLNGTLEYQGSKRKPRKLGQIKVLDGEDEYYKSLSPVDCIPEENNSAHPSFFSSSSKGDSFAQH

[3] = target: T2, Tyrosine-protein kinase Tec (Homo sapiens) (UniProt P42680); experiment: Selectivity interaction (ActivX KiNativ screen (kinase selectivity in THP-1 cell lysates)) EUB0000639a TEC; type: subcellular; conditions: lysate, at 0.2 µM
T2 sequence (whole entry): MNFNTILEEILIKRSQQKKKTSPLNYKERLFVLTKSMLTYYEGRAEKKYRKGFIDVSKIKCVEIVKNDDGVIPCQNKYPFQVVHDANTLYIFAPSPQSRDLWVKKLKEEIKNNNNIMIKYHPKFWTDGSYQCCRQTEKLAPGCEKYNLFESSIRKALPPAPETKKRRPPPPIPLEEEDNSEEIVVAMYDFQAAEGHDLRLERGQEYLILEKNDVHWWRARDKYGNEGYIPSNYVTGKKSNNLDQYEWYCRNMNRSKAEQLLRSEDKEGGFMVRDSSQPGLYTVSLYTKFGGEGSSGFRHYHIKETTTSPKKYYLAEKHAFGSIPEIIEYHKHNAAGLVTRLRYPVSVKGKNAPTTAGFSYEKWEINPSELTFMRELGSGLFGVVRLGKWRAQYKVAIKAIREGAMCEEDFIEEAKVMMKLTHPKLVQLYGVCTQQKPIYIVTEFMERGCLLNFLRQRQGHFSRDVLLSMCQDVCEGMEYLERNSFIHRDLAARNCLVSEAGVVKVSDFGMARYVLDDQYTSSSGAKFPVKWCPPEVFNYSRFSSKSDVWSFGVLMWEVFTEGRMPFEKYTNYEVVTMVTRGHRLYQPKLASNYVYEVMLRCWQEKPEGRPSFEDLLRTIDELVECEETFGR

[4] = target: T3, Phosphorylase b kinase gamma catalytic chain, liver/testis isoform (Homo sapiens) (UniProt P15735); experiment: Selectivity interaction (KinomeScan (DiscoverX)) EUB0000092b PHKG2; conditions: at 10 µM
T3 sequence (whole entry): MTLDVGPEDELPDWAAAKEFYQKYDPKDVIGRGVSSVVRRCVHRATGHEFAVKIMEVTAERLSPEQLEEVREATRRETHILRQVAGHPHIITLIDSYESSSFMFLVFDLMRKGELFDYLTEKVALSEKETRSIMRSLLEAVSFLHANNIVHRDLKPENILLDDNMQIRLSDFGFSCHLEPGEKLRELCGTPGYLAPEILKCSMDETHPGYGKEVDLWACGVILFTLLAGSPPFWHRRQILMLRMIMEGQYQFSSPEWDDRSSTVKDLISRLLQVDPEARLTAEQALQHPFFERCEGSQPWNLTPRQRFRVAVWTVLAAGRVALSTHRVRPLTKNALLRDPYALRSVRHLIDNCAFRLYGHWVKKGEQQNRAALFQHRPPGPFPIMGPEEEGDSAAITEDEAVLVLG

[5] = target: Activin receptor type-2B (Homo sapiens) (UniProt Q13705); experiment: Selectivity interaction (KinomeScan (DiscoverX)) EUB0000045b ACVR2B
[6] = target: Cyclin-dependent kinase-like 3 (Homo sapiens) (UniProt Q8IVW4); experiment: Selectivity interaction (KinomeScan (DiscoverX)) EUB0001619a CDKL3; conditions: at 1 µM
[7] = target: Dual specificity protein kinase CLK3 (Homo sapiens, UniProt P49761); conditions: at 1 µM
[8] = target: Mitogen-activated protein kinase kinase kinase 20 (Homo sapiens) (UniProt Q9NYL2); experiment: Selectivity interaction (ProQinase) EUB0000171b MAP3K20
Chain of Mitogen-activated protein kinase kinase kinase 20 (Homo sapiens) (Q9NYL2 2-800 limits assumed): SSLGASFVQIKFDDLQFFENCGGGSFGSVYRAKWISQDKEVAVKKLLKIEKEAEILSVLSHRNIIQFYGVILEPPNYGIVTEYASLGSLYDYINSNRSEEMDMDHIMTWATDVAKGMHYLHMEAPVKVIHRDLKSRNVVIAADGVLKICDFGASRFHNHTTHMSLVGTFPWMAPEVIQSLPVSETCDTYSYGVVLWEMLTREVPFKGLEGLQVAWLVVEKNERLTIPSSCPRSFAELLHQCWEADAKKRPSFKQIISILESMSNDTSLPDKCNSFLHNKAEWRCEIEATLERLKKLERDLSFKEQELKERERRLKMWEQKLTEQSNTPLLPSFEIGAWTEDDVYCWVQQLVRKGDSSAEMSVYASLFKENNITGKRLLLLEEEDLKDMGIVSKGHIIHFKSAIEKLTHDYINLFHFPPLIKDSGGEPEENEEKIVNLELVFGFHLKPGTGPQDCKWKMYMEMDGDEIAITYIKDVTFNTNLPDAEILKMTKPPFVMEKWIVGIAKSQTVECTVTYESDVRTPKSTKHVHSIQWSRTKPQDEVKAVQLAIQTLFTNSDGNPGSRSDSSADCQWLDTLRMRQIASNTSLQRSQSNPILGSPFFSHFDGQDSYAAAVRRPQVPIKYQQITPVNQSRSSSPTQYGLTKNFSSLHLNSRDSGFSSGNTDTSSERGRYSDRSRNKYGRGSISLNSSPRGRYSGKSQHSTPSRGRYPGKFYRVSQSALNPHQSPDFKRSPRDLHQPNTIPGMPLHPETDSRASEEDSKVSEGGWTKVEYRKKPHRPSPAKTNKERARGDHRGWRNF

Chain of Activin receptor type-2B (Homo sapiens) (Q13705 whole entry): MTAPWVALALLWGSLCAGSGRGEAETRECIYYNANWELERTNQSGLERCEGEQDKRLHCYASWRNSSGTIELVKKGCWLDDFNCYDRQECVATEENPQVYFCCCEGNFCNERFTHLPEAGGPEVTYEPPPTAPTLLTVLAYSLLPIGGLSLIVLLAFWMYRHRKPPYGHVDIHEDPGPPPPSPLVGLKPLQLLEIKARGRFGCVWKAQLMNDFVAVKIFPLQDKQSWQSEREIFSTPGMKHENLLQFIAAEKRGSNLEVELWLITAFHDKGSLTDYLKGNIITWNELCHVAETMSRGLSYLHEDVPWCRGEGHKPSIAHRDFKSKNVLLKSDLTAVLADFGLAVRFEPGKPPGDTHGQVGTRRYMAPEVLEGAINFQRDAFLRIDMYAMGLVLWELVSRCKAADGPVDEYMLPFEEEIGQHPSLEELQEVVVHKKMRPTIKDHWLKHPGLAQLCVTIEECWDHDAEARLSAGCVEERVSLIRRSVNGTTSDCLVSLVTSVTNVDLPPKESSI
Chain of Serine/threonine-protein kinase 26 (Q9P289 2-416 limits assumed): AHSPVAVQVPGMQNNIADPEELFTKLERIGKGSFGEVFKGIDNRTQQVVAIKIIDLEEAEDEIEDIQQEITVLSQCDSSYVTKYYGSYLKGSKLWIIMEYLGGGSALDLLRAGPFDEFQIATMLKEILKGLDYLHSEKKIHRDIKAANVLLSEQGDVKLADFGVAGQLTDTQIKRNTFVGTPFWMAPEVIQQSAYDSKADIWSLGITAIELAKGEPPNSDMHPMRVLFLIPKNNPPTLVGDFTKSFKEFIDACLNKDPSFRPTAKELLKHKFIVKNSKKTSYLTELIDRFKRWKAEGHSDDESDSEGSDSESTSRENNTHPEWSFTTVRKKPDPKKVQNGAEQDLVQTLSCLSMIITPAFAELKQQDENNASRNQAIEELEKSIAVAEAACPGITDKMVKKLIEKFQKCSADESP
Chain of Cyclin-dependent kinase-like 3 (Homo sapiens) (Q8IVW4 whole entry, looked up): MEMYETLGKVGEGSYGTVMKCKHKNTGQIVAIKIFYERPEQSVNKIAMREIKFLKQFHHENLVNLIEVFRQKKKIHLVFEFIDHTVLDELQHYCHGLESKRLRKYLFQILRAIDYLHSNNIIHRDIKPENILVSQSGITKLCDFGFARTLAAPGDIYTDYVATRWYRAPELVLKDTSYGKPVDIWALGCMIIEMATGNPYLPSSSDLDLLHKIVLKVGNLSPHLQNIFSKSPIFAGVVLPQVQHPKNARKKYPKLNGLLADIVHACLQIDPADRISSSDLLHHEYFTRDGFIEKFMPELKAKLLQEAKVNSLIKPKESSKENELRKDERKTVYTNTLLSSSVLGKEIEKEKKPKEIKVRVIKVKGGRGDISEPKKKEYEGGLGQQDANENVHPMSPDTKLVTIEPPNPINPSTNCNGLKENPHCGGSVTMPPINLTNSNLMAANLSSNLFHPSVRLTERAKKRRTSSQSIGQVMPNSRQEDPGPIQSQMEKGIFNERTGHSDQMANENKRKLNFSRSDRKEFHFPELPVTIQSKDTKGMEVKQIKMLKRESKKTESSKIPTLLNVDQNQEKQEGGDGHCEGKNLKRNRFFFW
Chain of Dual specificity protein kinase CLK3 (P49761 whole entry, looked up): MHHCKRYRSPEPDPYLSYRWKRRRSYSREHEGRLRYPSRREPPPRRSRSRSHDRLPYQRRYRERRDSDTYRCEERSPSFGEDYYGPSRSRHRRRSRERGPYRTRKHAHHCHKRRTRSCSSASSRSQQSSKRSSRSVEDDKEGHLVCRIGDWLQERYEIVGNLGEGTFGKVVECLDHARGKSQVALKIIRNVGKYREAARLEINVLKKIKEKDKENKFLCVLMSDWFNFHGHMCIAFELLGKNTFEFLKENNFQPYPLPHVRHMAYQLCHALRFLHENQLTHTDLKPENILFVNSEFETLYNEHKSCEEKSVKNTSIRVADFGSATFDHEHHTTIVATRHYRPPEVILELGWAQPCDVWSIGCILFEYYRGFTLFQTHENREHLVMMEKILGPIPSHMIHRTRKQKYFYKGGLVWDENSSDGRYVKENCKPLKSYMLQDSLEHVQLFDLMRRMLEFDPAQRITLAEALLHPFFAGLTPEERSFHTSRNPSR

Work on C=CC(=O)Nc1ccc(C(=O)Nc2[nH]nc3c2CN(C(=O)N[C@H](CN(C)C)c2ccccc2)C3(C)C)cc1 yielded a % of engagement [1] of 26%.
CCN(CC)CCCCNc1ncc2cc(-c3cc(OC)cc(OC)c3)c(NC(=O)NC(C)(C)C)nc2n1 was tested, and the % of control [2] was 100%.
For CC[C@@H]1[C@H](F)C(=O)N[C@@H]1COc1nccc2cc(C(N)=O)c(OC)cc12 [ZIMLOVISERTIB], the % of inhibition [3] was -52.3%.
Compound CCC(=O)N1CCN(c2ccc(-n3c(=O)ccc4cnc5ccc(-c6cnc7ccccc7c6)cc5c43)cc2C(F)(F)F)CC1 has a % of control [4] of 100%.
With C=CC(=O)Nc1cc(-n2c(=O)ccc3cnc4ccc(-c5ccc(NS(C)(=O)=O)cc5)cc4c32)ccc1C the % of control ([5]; at 1 µM) was 100% and the % of control ([5]; at 10 µM) was 84%.
Compound N#Cc1cccc(-c2c[nH]c3ncnc(N4CCOCC4)c23)c1 has a % of control [6] of 100%.
Cc1ccc(-c2ccc3c(ccc4sc5c(c43)NC[C@@H](C)NC5=O)n2)cn1 showed a % of inhibition [7] of 24%.
For C=CC(=O)Nc1cccc(C(=O)Nc2ccc(Nc3cc(-c4[nH]c(SC)nc4C)ccn3)cc2)c1, the % of control ([8]; at 1 µM) was 48% and the % of control ([8]; at 5 µM) was 15%.
